Ki data for two compounds are collected here from patent US20120196901A1, “TERTIARY AMIDE OREXIN RECEPTOR ANTAGONISTS” (Merck Sharp & Dohme Corp., priority 2009, published 2012).

For the experiment, the target named is T1, OX2R (Homo sapiens, UniProt O43614).
T1 construct: expressed in transfected cells; host or cells: CHO cells (membranes)
T1 sequence (O43614 1-444): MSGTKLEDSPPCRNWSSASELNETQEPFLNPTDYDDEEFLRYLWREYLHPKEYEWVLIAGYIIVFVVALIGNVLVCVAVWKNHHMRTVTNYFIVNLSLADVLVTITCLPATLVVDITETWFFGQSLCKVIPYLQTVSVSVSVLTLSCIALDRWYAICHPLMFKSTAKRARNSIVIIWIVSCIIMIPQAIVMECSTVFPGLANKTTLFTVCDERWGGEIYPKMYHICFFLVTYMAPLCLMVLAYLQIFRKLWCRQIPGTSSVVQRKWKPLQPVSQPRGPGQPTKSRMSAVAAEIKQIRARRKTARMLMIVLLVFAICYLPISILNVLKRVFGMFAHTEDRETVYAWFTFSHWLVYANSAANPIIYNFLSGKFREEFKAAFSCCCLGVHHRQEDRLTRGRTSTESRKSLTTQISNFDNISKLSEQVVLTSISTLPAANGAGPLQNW
Kind of experiment: radioligand binding assay, membranes prepared from CHO cells expressing the OX2 receptor. How it is done:
The utility of the compounds in accordance with the present invention as orexin receptor OX1R and/or OX2R antagonists may be readily determined without undue experimentation by methodology well known in the art, including the “FLIPR Ca^2+ Flux Assay” (Okumura et al., Biochem, Biophys. Res. Comm. 280:976-981, 2001). In a typical experiment the OX1 and OX2 receptor antagonistic activity of the compounds of the present invention was determined in accordance with the following experimental method. […] Within the Fluorescent Imaging Plate Reader (FLIPR, Molecular Devices), test compounds are added to the plate in a volume of 25 ul, incubated for 5 min and finally 25 ul of agonist is added. Fluorescence is measured for each well at 1 second intervals for 5 minutes and the height of each fluorescence peak is compared to the height of the fluorescence peak induced by 70 pM Ala-6,12 orexin-A with buffer in place of antagonist. For each antagonist, […] value (the concentration of compound needed to inhibit 50% of the agonist response) is determined. Alternatively, compound potency can be assessed by a radioligand binding assay (described in Bergman et. al. Bioorg. Med. Chem. Lett. 2008, 18, 1425-1430) in which the inhibition constant (ki) is determined in membranes prepared from CHO cells expressing either the OX1 or OX2 receptor. […]

As a reminder, the Ki is the equilibrium dissociation constant of an inhibitor or competing ligand from its target.

`COc1cccc(C(=O)N(CCc2ccc(OC)c(OC)n2)C(C)CCc2ccccc2)n1` (centres unmarked) [Cmp 2-13, N-[2-(5,6-dimethoxypyridin-2-yl)ethyl]-6-methoxy-N-(4-phenylbutan-2-yl)pyridine-2-carboxamide] displayed a Ki of 0.14 nM.

In turn, `COc1ccc(CCN(C(=O)c2cccc(C)n2)C(C)CCc2ccccc2)nc1OC` (centres unmarked) [Cmp 2-3, N-[2-(5,6-Dimethoxy-2-pyridinyl)ethyl]-6-methyl-N-(1-methyl-3-phenylpropyl)-2-pyridinecarboxamide] yielded an inhibition constant (Ki) of 0.27 nM.
